# Test results: US20230106943A1, “ENGINEERED ANTIMICROBIAL PEPTIDES AND USAGE THEREOF” (Peptilogics, Inc., priority 2021, published 2023)
# “And” between values parts separate entries of the source, which are not always exact repeats. Equal entries are not always repeated. No end group written: not given here.
# Assays:
# [1] = Example 4 stability of concentrated solutions: pH (method 05627); assay type: physicochemical
# Protocol: (§1) The peptide formulation of SEQ ID NO: 1 dissolved in a saline solution with a pH of 5.0±0.1 was tested for stability under either −20° C. or 40° C. with 75% relative humidity (RH). […]
# [2] = Stability of 5 mg/mL SEQ ID NO: 1 solution pH 5.0 stored at 40° C. or −20° C. (content, pH, HPLC area %); assay type: physicochemical; details: for level of impurity at RRT 0.98: 5 mg/mL solution pH 5.0
# Protocol: Enhanced stability was shown of the peptide formulation after 54 days of storage at 40° C. as a liquid solution with a concentration of 5 mg/mL of SEQ ID NO: 1 at pH of 5.0. FIG. 4 depict the overlaid chromatograph of SEQ ID NO: 1 after 7 days at 40° C. (bottom graph) and after 54 days at 40° C. (top graph).
# [3] = Example 4 stability of concentrated saline pH 5.0 solutions at −20° C. or 40° C./75% RH: Visual Appearance (method 25481); assay type: physicochemical
# Protocol: as §1
# [4] = Stability of solid SEQ ID NO: 1 stored at −20° C. (HPLC area percent); assay type: physicochemical
# Protocol: A solid form of SEQ ID NO: 1 from Batch 2K18005 was dissolved and assayed. FIG. 1 depict the chromatograph of SEQ ID NO:1 at 1.0 mg/mL. The retention time at 14.38 and relative retention time at 1.00 (RTT) corresponded to SEQ ID NO: 1. The area percent of the SEQ ID NO: 1 was 99.09. […] The area percent of the impurity was 0.91. FIG. 1 depicts SEQ ID NO: 1 at time (t)=0 for a baseline prior to storage. SEQ ID NO: 1 is stable after 3 years of storage at −20° C. as a dry powder in a glass vial. FIG. 2 depicts the HPLC chromatograph after 3 years of storage SEQ ID NO: 1 in solid form at −20° C. (Batch 2K18005). The retention time at 18.03 and relative retention time at 1.00 (RTT) corresponded to SEQ ID NO: 1. The area percent of the SEQ ID NO: 1 was 97.87.
# [5] = 15.3 mg/mL solution, 40° C. and 75% RH, 1 Month
# [6] = 15.3 mg/mL solution, 40° C. and 75% RH, 2 Month
# [7] = 15.3 mg/mL solution, 40° C. and 75% RH, 3 Month
# [8] = 15.3 mg/mL solution, 40° C. and 75% RH, 6 Month
# [9] = 15.3 mg/mL solution, −20° C., 0 Month
# [10] = 15.3 mg/mL solution, −20° C., 1 Month
# [11] = 15.3 mg/mL solution, −20° C., 2 Month
# [12] = 15.3 mg/mL solution, −20° C., 3 Month
# [13] = 15.3 mg/mL solution, −20° C., 6 Month
# [14] = 36.7 mg/mL solution, 40° C. and 75% RH, 1 Month
# [15] = 36.7 mg/mL solution, 40° C. and 75% RH, 2 Month
# [16] = 36.7 mg/mL solution, 40° C. and 75% RH, 3 Month
# [17] = 36.7 mg/mL solution, 40° C. and 75% RH, 6 Month
# [18] = 36.7 mg/mL solution, −20° C., 0 Month
# [19] = 36.7 mg/mL solution, −20° C., 1 Month
# [20] = 36.7 mg/mL solution, −20° C., 2 Month
# [21] = 36.7 mg/mL solution, −20° C., 3 Month
# [22] = 36.7 mg/mL solution, −20° C., 6 Month
# [23] = 72.4 mg/mL solution, 40° C. and 75% RH, 1 Month
# [24] = 72.4 mg/mL solution, 40° C. and 75% RH, 2 Month
# [25] = 72.4 mg/mL solution, 40° C. and 75% RH, 3 Month
# [26] = 72.4 mg/mL solution, 40° C. and 75% RH, 6 Month
# [27] = 72.4 mg/mL solution, −20° C., 0 Month
# [28] = 72.4 mg/mL solution, −20° C., 1 Month
# [29] = 72.4 mg/mL solution, −20° C., 2 Month
# [30] = 72.4 mg/mL solution, −20° C., 3 Month
# [31] = 72.4 mg/mL solution, −20° C., 6 Month
# [32] = 81.4 mg/mL solution, 40° C. and 75% RH, 1 Month
# [33] = 81.4 mg/mL solution, 40° C. and 75% RH, 3 Month
# [34] = 81.4 mg/mL solution, −20° C., 1 Month
# [35] = 81.4 mg/mL solution, −20° C., 2 Month
# [36] = 81.4 mg/mL solution, −20° C., 3 Month
# [37] = solid form, Batch 2K18005, t=0 baseline prior to storage
# [38] = solid form, after 3 years at −20° C.
substance,measurement,setting,value
RRWVRRVRRVWRRVVRVVRRWVRR-NH2 [SEQ ID NO: 1],pH,[1]; [5],Average Reading: 4.9
same,pH,[1]; [6],Average Reading: 5.0
same,pH,[1]; [7],Average Reading: 5.0
same,pH,[1]; [8],5.0
same,pH,[1]; [9],Average Reading: 4.9
same,pH,[1]; [10],Average Reading: 5.0
same,pH,[1]; [11],Average Reading: 4.9
same,pH,[1]; [12],Average Reading: 5.0
same,pH,[1]; [13],5.0
same,pH Average Reading,[1]; [14],Average Reading: 4.8
same,pH Average Reading,[1]; [15],Average Reading: 4.9
same,pH Average Reading,[1]; [16],Average Reading: 5.0
same,pH,[1]; [17],4.8
same,pH,[1]; [18],Average Reading: 4.9
same,pH,[1]; [19],Average Reading: 4.8
same,pH,[1]; [20],Average Reading: 4.9
same,pH,[1]; [21],Average Reading: 5.0
same,pH,[1]; [22],4.9
same,pH Average Reading,[1]; [23],Average Reading: 4.7
same,pH Average Reading,[1]; [24],Average Reading: 4.9
same,pH Average Reading,[1]; [25],Average Reading: 5.0
same,pH,[1]; [26],4.8
same,pH Average Reading,[1]; [27],Average Reading: 4.9
same,pH Average Reading,[1]; [28],Average Reading: 4.7
same,pH Average Reading,[1]; [29],Average Reading: 4.8
same,pH Average Reading,[1]; [30],Average Reading: 5.0
same,pH,[1]; [31],4.8
same,pH,[1]; [32],4.9
same,pH,"[1]; 81.4 mg/mL solution, 40° C. and 75% RH, 2 Month",4.9
same,pH,[1]; [33],4.9
same,pH,"[1]; 81.4 mg/mL solution, −20° C., 0 Month",4.6
same,pH,[1]; [34],4.8
same,pH,[1]; [35],4.9
same,pH,[1]; [36],4.6
same,level of impurity at RRT 0.98,[2]; 7 days at 40° C.,0.4%
same,level of impurity at RRT 0.98,[2]; 54 days at 40° C.,1.1%
same,Main peak SEQ ID NO: 1 area %,[2]; 7 days/40° C.,97.2% and 97.1%
same,SEQ ID NO: 1 content,[2]; 7 days/40° C.,5.05 mg/mL and 5.11 mg/mL
same,Solution pH,[2]; 7 days/40° C.,4.98 and 5.02
same,Main peak SEQ ID NO: 1 area %,[2]; 7 days/−20° C.,97.2%
same,SEQ ID NO: 1 content,[2]; 7 days/−20° C.,5.11 mg/mL
same,Main peak SEQ ID NO: 1 area %,[2]; 14 days/40° C.,96.2% and 94.7%
same,SEQ ID NO: 1 content,[2]; 14 days/40° C.,5.05 mg/mL and 5.01 mg/mL
same,Solution pH,[2]; 14 days/40° C.,5.01 and 5.00
same,SEQ ID NO: 1 content,[2]; 14 days/−20° C.,5.08 mg/mL
same,Solution pH,[2]; 14 days/−20° C.,4.97
same,Main peak SEQ ID NO: 1 area %,[2]; 54 days/40° C.,95.6%
same,SEQ ID NO: 1 content,[2]; 54 days/40° C.,4.99 mg/mL
same,Solution pH,[2]; 54 days/40° C.,4.96
same,Main peak SEQ ID NO: 1 area %,[2]; 54 days/−20° C.,96.9%
same,Area % of concurrent analytical standard,[2]; standard run with the 7 days samples,97.1 ± 0.4%
same,Area % of concurrent analytical standard,[2]; standard run with the 14 days samples,95.5 ± 0.5%
same,Area % of concurrent analytical standard,[2]; standard run with the 54 days samples,96.8 ± 0.8%
same,Visual Appearance,[3]; [5],"Clear, colorless liquid. Free of visible particulates."
same,Visual Appearance,[3]; [6],"Clear, colorless liquid. Free of visible particulates."
same,Visual Appearance,[3]; [7],"Clear, colorless liquid. Free of visible particulates."
same,Visual Appearance,[3]; [8],"Clear, colorless liquid. Free of visible particulates,"
same,Visual Appearance,[3]; [9],"Clear, colorless liquid. Free of visible particulates."
same,Visual Appearance,[3]; [10],"Clear, colorless liquid. Free of visible particulates."
same,Visual Appearance,[3]; [11],"Clear, colorless liquid. Free of visible"
same,Visual Appearance,[3]; [12],"Clear, colorless liquid. Free of visible particulates."
same,Visual Appearance,[3]; [13],"Clear, colorless liquid. Free of visible particulates,"
same,Visual Appearance,[3]; [14],"Clear, colorless liquid"
same,Visual Appearance,[3]; [15],"Clear, colorless liquid"
same,Visual Appearance,[3]; [16],"Clear, colorless liquid"
same,Visual Appearance,[3]; [17],"Clear, colorless liquid, free"
same,Visual Appearance,[3]; [18],"Clear, colorless liquid."
same,Visual Appearance,[3]; [19],"Clear, colorless liquid."
same,Visual Appearance,[3]; [20],"Clear, colorless liquid."
same,Visual Appearance,[3]; [21],"Clear, colorless liquid."
same,Visual Appearance,[3]; [22],"Clear, colorless liquid, free"
same,Visual Appearance,[3]; [23],"Clear, colorless liquid"
same,Visual Appearance,[3]; [24],"Clear, colorless liquid"
same,Visual Appearance,[3]; [25],"Clear, colorless liquid"
same,Visual Appearance,[3]; [26],"Clear, slightly yellow liquid, free"
same,Visual Appearance,[3]; [27],"Clear, colorless liquid"
same,Visual Appearance,[3]; [28],"Clear, colorless liquid"
same,Visual Appearance,[3]; [29],"Clear, colorless liquid"
same,Visual Appearance,[3]; [30],"Clear, colorless liquid"
same,Visual Appearance,[3]; [31],"Clear, colorless liquid, free"
same,Visual Appearance,[3]; [32],"Clear, yellow liquid"
same,Visual Appearance,[3]; [33],"stopper Solution: Clear, yellow"
same,Visual Appearance,[3]; [34],"Clear, colorless liquid"
same,Visual Appearance,[3]; [35],"a clear colorless liquid, visibly"
same,Visual Appearance,[3]; [36],"rubber stopper Solution: Clear, colorless liquid,"
same,solubility,,> 100 mg/mL
same,stability on storage,"[4]; dry powder in a glass vial, 3 years at −20° C.",stable
same,area percent of the SEQ ID NO: 1 (HPLC),"[4]; solid form, Batch 2K18005, after 3 years of storage at −20° C.",97.87 area percent
same,area percent of the SEQ ID NO: 1 (HPLC),[4]; [37],99.09 area percent
same,"area percent of the impurity, RTT 1.03",[4]; [37],0.91 area percent
same,"area percentage of impurity, RTT 0.99",[4]; [38],0.09 area percent
same,"area percentage of impurity, RTT 1.02",[4]; [38],1.28 area percent
same,"area percentage of impurity, RTT 1.03",[4]; [38],0.41 area percent
same,"area percentage of impurity, RTT 1.04",[4]; [38],0.19 area percent
same,"area percentage of impurity, RTT 1.05",[4]; [38],0.15 area percent
